Results as given in ChEMBL document CHEMBL1221220, “Transport and signaling via the amino acid binding site of the yeast Gap1 amino acid transceptor” (Nat Chem Biol, 2009).
Where a chain is given by its changes, count along the chain named. Calls of active or inactive are those of the source. No cut-off for these calls is given here.

How the values were obtained:
[1] = system: T1, General amino-acid permease GAP1 (Saccharomyces cerevisiae), P19145 [G390C]; assay: Activation of yeast Gap1 G390C mutant-mediated amino acid uptake at 10 mM
T1 sequence (whole entry): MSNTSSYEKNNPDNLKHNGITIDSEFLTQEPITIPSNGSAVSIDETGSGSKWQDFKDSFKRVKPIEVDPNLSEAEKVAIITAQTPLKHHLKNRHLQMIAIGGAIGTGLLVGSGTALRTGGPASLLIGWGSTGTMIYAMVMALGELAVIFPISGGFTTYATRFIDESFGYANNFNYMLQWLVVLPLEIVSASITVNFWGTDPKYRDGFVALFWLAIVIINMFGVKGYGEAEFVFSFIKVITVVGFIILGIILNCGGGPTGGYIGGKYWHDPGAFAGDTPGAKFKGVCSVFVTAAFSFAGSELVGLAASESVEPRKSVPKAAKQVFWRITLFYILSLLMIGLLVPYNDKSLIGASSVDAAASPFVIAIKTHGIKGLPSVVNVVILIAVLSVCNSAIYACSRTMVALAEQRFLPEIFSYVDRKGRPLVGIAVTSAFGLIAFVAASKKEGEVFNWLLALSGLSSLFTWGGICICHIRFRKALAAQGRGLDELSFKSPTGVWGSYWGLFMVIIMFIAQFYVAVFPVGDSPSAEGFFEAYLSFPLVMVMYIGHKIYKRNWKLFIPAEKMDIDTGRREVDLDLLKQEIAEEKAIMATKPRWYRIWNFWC

[2] = system: T2, General amino-acid permease GAP1 (Saccharomyces cerevisiae), P19145 [S398C]; assay: Activation of yeast Gap1 S398C mutant-mediated amino acid uptake at 10 mM
T2 sequence (whole entry): T1 sequence (whole entry) with C390G, S398C

[3] = system: T3, General amino-acid permease GAP1 (Saccharomyces cerevisiae), P19145 [I382C]; assay: Induction of yeast Gap1 I382C mutant-mediated trehalose activation at 10 mM
T3 sequence (whole entry): T1 sequence (whole entry) with I382C, C390G

[4] = system: T4, General amino-acid permease GAP1 (Saccharomyces cerevisiae), P19145 [N391C]; assay: Induction of yeast Gap1 N391C mutant-mediated trehalose activation at 10 mM
T4 sequence (whole entry): T1 sequence (whole entry) with C390G, N391C

Activity [1]: inactive
Activity [2]: inactive
Activity [3]: inactive
Activity [4]: inactive
SMILES: NC(=O)NCCC[C@H](N)C(=O)O
